The record followed here is patent publication US20220387317A1, “METHODS AND COMPOSITIONS RELATING TO SELECTIVE INTRACELLULAR DELIVERY OF CD38 INHIBITORS” (Ohio State Innovation Foundation, priority 2019, published 2022).

Entries after “also recorded” stand apart in the source; their conditions may differ.

Test [1] deals with Sprague Dawley rats. Kind of test: Rat liver hilar clamp model of IRI (segmental 70% ischemia). The test is classed as in vivo. The source says:
In Vitro: Primary liver cells subjected to H2O2-induced oxidative stress injury. In Vivo: Liver IRI induced in Sprague Dawley rats using a segmental (70% ischemia) hilar clamp model. Markers of liver injury including plasma ALT and AST, tissue MDA, ATP, and GSH, and histology assessed. • b) Results Hypoxic HSCs had increased CD38 expression (FIG. 11) and CD38 activity measured by fluorometric assay (FIG. 12). CD38 expression, activity, and hepatocellular injury increased with duration of ischemia in a rat hilar clamp model of IRI: Sprague-Dawley rats underwent a hilar clamp procedure to induce IRI for 30, 60, 90, 120 min of ischemia followed by 6 h reperfusion. Tissue CD38 expression was measured by Western blot (FIG. 15A), serum ALT by colorimetric assay at 0, 30, 180, 360 min post reperfusion (FIG. 15B), and CD38 activity at all ischemia time points (FIG. 15C). CD38 inhibition increases cell viability, decreases intracellular ROS formation and ET-1 production in HSCs exposed to hypoxia/oxidant stress: Primary rat HSCs were exposed to 3 h hypoxia (0% 02) and 2 h oxidant stress (H2O2). […] Rat model of marginal donor organ recapitulates the inflammatory environment of a discarded “high risk” human donor organ: Control rats have little steatosis by H&E (FIG. 18A) and mild CD38 expression by IHC (FIG. 18B). Rats fed a methionine choline deficient (MCD) diet have severe steatosis by H&E (FIG. 18C) and high CD38 expression co-localizing with GFAP positive HSCs by IHC (FIG. 18D).

Test [2] concerns the target T1, CD38 (Rattus norvegicus, UniProt Q64244).
T1 construct: Liver IRI induced in Sprague Dawley rats using a segmental (70% ischemia) hilar clamp model; from tissue; host or cells: rat liver (Sprague Dawley, hilar clamp ischemia/reperfusion)
T1 sequence (Q64244 1-303): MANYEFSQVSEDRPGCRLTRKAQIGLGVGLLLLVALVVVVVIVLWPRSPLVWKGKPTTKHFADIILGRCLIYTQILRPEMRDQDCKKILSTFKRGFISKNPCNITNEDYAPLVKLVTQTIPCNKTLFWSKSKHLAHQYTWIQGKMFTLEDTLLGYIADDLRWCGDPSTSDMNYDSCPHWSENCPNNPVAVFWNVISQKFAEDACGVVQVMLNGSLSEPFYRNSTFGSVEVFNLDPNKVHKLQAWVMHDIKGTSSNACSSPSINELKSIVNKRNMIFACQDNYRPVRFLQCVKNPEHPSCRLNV
Kind of test: CD38 activity during hepatic IRI. The test is classed as in vivo. The source says:
In Vitro: Primary liver cells subjected to H2O2-induced oxidative stress injury. In Vivo: Liver IRI induced in Sprague Dawley rats using a segmental (70% ischemia) hilar clamp model. […] Additionally, CD38 activity correlated with increased ischemic time (FIGS. 15A and 15C). However, Apigenin treatment attenuated liver IRI (FIG. 16). […] Additionally, Apigenin treatment improves tissue MAD, ATP and GSH. Lastly, Apigenin treatment preserves tissue architecture.

For `O=c1cc(-c2ccc(O)cc2)oc2cc(O)cc(O)c12` [Apigenin], the tissue architecture entry in test [1] (histology, liver IRI) was “preserves”. Besides, in test [1] (intrahepatic delivery, 1 h of ischemia and 6 h of reperfusion, FIG. 16), the “liver IRI (injury)” value is reported as “attenuated; also recorded: protection from injury; also recorded: decreased injury”. Also, in test [1] (liver tissue, liver IRI), the “tissue ATP” value was “improves”, the “tissue GSH” value is on record as “improves” and the “tissue MDA (malondialdehyde)” value is listed as “improves”. Besides, in test [1] (plasma, liver IRI), the ALT result is listed as “improves” and the AST result was “improves”. Besides, the “CD38 activity during IRI” value in test [2] (FIG. 14) was “rescued”. Also, the “CD38 activity during IRI” value in test [2] (FIG. 14, listed as Inhibitor) is recorded as “decreases”.
